From US7632871B2, “Methods of making and methods of using antiseptic disinfectant, cosmetic and toiletries, medicine or food containing the same” (Mandom Corporation, priority 2002, dated 2009) come the findings set out here.

Holding throughout (assay type): cell-based
For assay [1], the system named is Staphylococcus aureus IF013276. The experiment in a line: Dual minimum inhibitory concentration (agar dilution MIC) of 1,2-octanediol combined with a fragrance component, Staphylococcus aureus. To be noted: fragrance component combined with 1,2-octanediol (50:50 by weight mixture); agar medium, 35° C., growth judged after two days. The method, then: (§1) Candida albicans IFO1594 (mycotic stomatitis), Staphylococcus aureus IF013276 (Staphylococcus aureus), and Pseudomonas aeruginosa IF013275 (Pseudomonas) are used as sample bacterias.
(§2) For preparing bacteria, as to Staphylococcus aureus and Pseudomonas, they are incubated at 35° C. in the agar medium, and further incubated at 35° C. after transferred into the bouillon medium. The inoculating bacteria is prepared by diluting the obtained culture solution to about 10^8 inoculating cell/ml.
(§3) With a dilution solvent of ethyl cellosolve of 20 w/w %, 1,2-octanediol solution of 5, 4, 3, 2.5, 2.25, 2, 1.75, 1.5, 1.25 and 1 w/v % are prepared.
(§4) While, as to thymol and the 50:50 by weight mixture of 1,2-octanediol and thymol, the dilution series are prepared by doubling diluting the 20w/v % solution.
(§5) 1 ml of each of the above-mentioned dilution series including the test material and 9 ml of the agar medium are introduced to each schales, and the above-mentioned inoculating bacteria was applied on each of the schales at the length of 1 cm.
(§6) Staphylococcus aureus and Pseudomonas were incubated at 35° C., and it was judged whether or not the bacteria had grown two days later. The yeast was incubated at 25° C., and it was judged whether or not the bacteria had grown three days later.
(§7) Each MIC of the obtained 1,2-octanediol, thymol, and the 50:50 mixture by weight of 1,2-octanediol and thymol corresponding the compounding amount of 1,2-octanediol and thymol is plotted to make out the dual minimum inhibitory concentration. Action and effect in case that two kinds of antibacterial materials are compounded can be judged by the dual minimum inhibitory concentration. More specifically, the actions caused by compounding two antibacterial materials are roughly classified into synergistic action, additive action and counteraction. Synergistic action is the action in that two kinds of agent act synergistically, to enhance the antibacterial activity that the agents originally have. The additive action is the action in that the antibacterial activities of the agents are put together. The counteraction is the action in that one agent cancels the antibacterial activity of the other agent.
(§8) The method using dual minimum inhibitory concentration, as shown in FIG. 1 for example, is the method to measure MICs as to material A and Material B at different proportions of them and to judge the result in view of the graph. In this method, a line is drawn to connect MIC (point A) in using only material A to MIC (point B) in using only material B. When the MIC (point C) in using both materials is inside the line, it is judged to be Synergistic action that antibacterial activity was strengthened by the combined use. When the MIC (point D) is on the line, it can be judged to be the additive action. When the MIC (point E) is in the outside of the line, it is judged to be the counteraction that cancels antibacterial activity of one or both of the materials to decrease the antibacterial activity.
(§9) The antibacterial effect in the case of mixing 1,2-octanediol and thymol was evaluated by the following evaluation criterion from dual minimum inhibitory concentration diagram in FIG. 2.
Background: In agar dilution the substance is mixed into plates at graded concentrations.

A further assay relates to Candida albicans IFO1594. The experiment in a line: Dual minimum inhibitory concentration (agar dilution MIC) of 1,2-octanediol combined with a fragrance component, Candida albicans. To be noted: fragrance component combined with 1,2-octanediol (50:50 by weight mixture); agar medium, 25° C., growth judged after three days. On the procedure:
as §1
As to yeast (Candida albicans), the inoculating bacteria is prepared by incubating the yeast in the same way as Staphylococcus aureus and Pseudomonas at 30° C. and diluting the yeast to about 10^7 cell/ml.
as §3, §4, §5, §6, §7, §8, §9

Assay [2] has as its system Pseudomonas aeruginosa IF013275. The experiment in a line: Dual minimum inhibitory concentration (agar dilution MIC) of 1,2-octanediol combined with a fragrance component, Pseudomonas aeruginosa. To be noted: fragrance component combined with 1,2-octanediol (50:50 by weight mixture); agar medium, 35° C., growth judged after two days. On the procedure:
as §1, §2, §3, §4, §5
Staphylococcus aureus and Pseudomonas were incubated at 35° C., and it was judged whether or not the bacteria had grown two days later. […]
as §9

A further assay relates to Escherichia coli IFO3972. The experiment in a line: Dual minimum inhibitory concentration (agar dilution MIC) of 1,2-octanediol combined with a fragrance component, Escherichia coli. Also noted: key: ◯: There is synergistic action in the antibacterial effect.; Δ: There is additive action in the antibacterial effect.; ×: There is counteraction in the antibacterial effect. As to conditions: fragrance component combined with 1,2-octanediol (50:50 by weight mixture); same way as Embodiment 1, E. coli instead of P. aeruginosa. The method, then: as §2, §3, §4
1 ml of each of the above-mentioned dilution series including the test material and 9 ml of the agar medium are introduced to each schales, and the above-mentioned inoculating bacteria was applied on each of the schales at the length of 1 cm. […]
as §9
Manipulating each of citronellol and β-pinene for fragrance component in the same way as in Embodiment 1 using Escherichia coli IFO3972 instead of Pseudomonas aeruginosa IF013275, each dual minimum inhibitory concentration of FIGS. 6-7 was obtained. […] From the obtained result, the antibacterial effect was evaluated by the above-mentioned evaluation criterion.

Turning to `CC(=O)O[C@@H]1C[C@H]2CC[C@]1(C)C2(C)C` (racemic) [isobornyl acetate, reference compound], the “antibacterial effect of mixing with 1,2-octanediol, judged from dual minimum inhibitory concentration diagram, S. aureus” value in assay [1] is reported as “∘”.
On to `C=CCc1ccc(O)c(OC)c1` [Eugenol], for which the “antibacterial effect of mixing with 1,2-octanediol, judged from dual minimum inhibitory concentration diagram, C. albicans” value with Candida albicans IFO1594 is reported as “∘”. The “antibacterial effect of mixing with 1,2-octanediol, judged from dual minimum inhibitory concentration diagram, S. aureus” value in assay [1] is reported as “∘”. Also, the “antibacterial effect of mixing with 1,2-octanediol, judged from dual minimum inhibitory concentration diagram, P. aeruginosa” value in assay [2] was “∘”.
Take `Cc1ccc(C(C)C)c(O)c1` [Thymol]: the “antibacterial effect of mixing with 1,2-octanediol, judged from dual minimum inhibitory concentration diagram, C. albicans” value in the assay with Candida albicans IFO1594 is “∘”. Also, the “antibacterial effect of mixing with 1,2-octanediol, judged from dual minimum inhibitory concentration diagram, S. aureus” value in assay [1] is recorded as “∘”. Moreover, the “antibacterial effect of mixing with 1,2-octanediol, judged from dual minimum inhibitory concentration diagram, P. aeruginosa” value in assay [2] was “∘”.
As to `CC(C)=CCCC(C)CC=O` (stereo not drawn) [citronellal], the “antibacterial effect of mixing with 1,2-octanediol, judged from dual minimum inhibitory concentration diagram, C. albicans” value with Candida albicans IFO1594 is “∘”. Moreover, the “antibacterial effect of mixing with 1,2-octanediol, judged from dual minimum inhibitory concentration diagram, S. aureus” value in assay [1] is “∘”.
As for `CC(C)=CCCC(C)CCO` (stereo not drawn) [citronellol], the “antibacterial effect of mixing with 1,2-octanediol, judged from dual minimum inhibitory concentration diagram, C. albicans” value in the assay on Candida albicans IFO1594 is recorded as “∘”. Besides, in assay [1], the “antibacterial effect of mixing with 1,2-octanediol, judged from dual minimum inhibitory concentration diagram, S. aureus” value is “∘”. Also, the “antibacterial effect of mixing with 1,2-octanediol, judged from dual minimum inhibitory concentration diagram, E. coli” value in the assay with Escherichia coli IFO3972 is reported as “∘”.
With `CC(=O)OC(C)(C)C1CC=C(C)CC1` (stereo not drawn) [terpinyl acetate], the “antibacterial effect of mixing with 1,2-octanediol, judged from dual minimum inhibitory concentration diagram, C. albicans” value in the assay on Candida albicans IFO1594 is listed as “∘”. In assay [1], the “antibacterial effect of mixing with 1,2-octanediol, judged from dual minimum inhibitory concentration diagram, S. aureus” value was “∘”.
Take `C=C1CCC2CC1C2(C)C` (stereo not drawn) [β-pinene]: the “antibacterial effect of mixing with 1,2-octanediol, judged from dual minimum inhibitory concentration diagram, C. albicans” value in the assay with Candida albicans IFO1594 was “∘”. The “antibacterial effect of mixing with 1,2-octanediol, judged from dual minimum inhibitory concentration diagram, S. aureus” value in assay [1] is listed as “∘”. Moreover, the “antibacterial effect of mixing with 1,2-octanediol, judged from dual minimum inhibitory concentration diagram, E. coli” value in the assay on Escherichia coli IFO3972 is listed as “Δ”.
In the case of guaiac acetate [reference compound], the “antibacterial effect of mixing with 1,2-octanediol, judged from dual minimum inhibitory concentration diagram, S. aureus” value in assay [1] is on record as “∘”.
